This assay has as its target T1, GR (Homo sapiens, UniProt P04150).
T1 construct: expressed in transfected cells; host or cells: CHO-K1
T1 sequence (P04150 1-777): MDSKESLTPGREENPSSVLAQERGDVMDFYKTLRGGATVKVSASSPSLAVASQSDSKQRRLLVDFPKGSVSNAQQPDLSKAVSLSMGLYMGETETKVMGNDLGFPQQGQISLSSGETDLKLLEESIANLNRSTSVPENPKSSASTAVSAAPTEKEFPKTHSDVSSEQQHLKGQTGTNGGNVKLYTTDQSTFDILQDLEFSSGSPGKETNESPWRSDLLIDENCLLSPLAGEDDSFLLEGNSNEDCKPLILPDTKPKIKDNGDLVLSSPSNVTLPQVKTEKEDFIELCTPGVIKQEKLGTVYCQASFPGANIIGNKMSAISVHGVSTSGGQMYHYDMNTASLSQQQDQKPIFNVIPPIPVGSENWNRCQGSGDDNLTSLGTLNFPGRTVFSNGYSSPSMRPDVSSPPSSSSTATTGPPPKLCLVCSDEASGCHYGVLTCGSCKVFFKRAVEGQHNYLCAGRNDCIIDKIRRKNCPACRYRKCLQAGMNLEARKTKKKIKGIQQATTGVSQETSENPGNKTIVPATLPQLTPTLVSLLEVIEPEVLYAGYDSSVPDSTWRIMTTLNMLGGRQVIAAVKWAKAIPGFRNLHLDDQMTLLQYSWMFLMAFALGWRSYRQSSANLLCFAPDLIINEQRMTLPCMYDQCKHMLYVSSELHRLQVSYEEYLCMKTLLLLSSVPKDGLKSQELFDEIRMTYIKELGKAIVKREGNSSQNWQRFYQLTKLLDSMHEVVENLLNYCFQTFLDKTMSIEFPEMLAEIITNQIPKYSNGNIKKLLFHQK
As to the kind of experiment: In Vitro GR Luciferase Reporter Assay (antagonist mode, CHO-K1-GR-MMTV-Luc reporter cells). Type of assay: cell-based. The note with it: antagonist mode, 10 nM Dexamethasone. The method in brief: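 Antagonist mode: compounds (8 serial 1:5 dilutions) added to GR-MMTV-luciferase CHO-K1 reporter cells co-exposed to 10 nM dexamethasone final, in phenol red-free DMEM plus 10% CSS. After roughly 18-24 h at 37° C, OneGlo luminescence read and IC50 calculated.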
Compound `Cn1ccc(S(=O)(=O)CC2CCC3=Cc4c(cnn4-c4ccc(F)cc4)C[C@]3(C(=O)c3ncc(C(F)(F)F)s3)C2)n1` (stereo partly drawn) [Example 361, ((4aR)-1-(4-fluorophenyl)-6-(((1-methyl-1H-pyrazol-3-yl)sulfonyl)methyl)-1,4,5,6,7,8-hexahydro-4aH-benzo[f]indazol-4a-yl)(5-(trifluoromethyl)thiazol-2-yl)methanone] registered a half-maximal inhibitory concentration (IC50) not above 100 nM.

`Cn1ccc(S(=O)(=O)CC2CCC3=Cc4c(cnn4-c4ccc(F)cc4)C[C@]3(C(=O)c3cc(F)ccn3)C2)n1` (stereo partly drawn) [Example 362, ((4aR)-1-(4-fluorophenyl)-6-(((1-methyl-1H-pyrazol-3-yl)sulfonyl)methyl)-1,4,5,6,7,8-hexahydro-4aH-benzo[f]indazol-4a-yl)(4-fluoropyridin-2-yl)methanone] displayed an IC50 not above 100 nM. The figure for `Cn1ccc(S(=O)(=O)CC2CCC3=Cc4c(cnn4-c4ccc(F)cc4)C[C@]3(C(=O)c3cc(Cl)ccn3)C2)n1` (stereo partly drawn) [Example 364, (4-chloropyridin-2-yl)((4aR)-1-(4-fluorophenyl)-6-(((1-methyl-1H-pyrazol-3-yl)sulfonyl)methyl)-1,4,5,6,7,8-hexahydro-4aH-benzo[f]indazol-4a-yl)methanone] is not above 100 nM; for `Cn1cnc(S(=O)(=O)[C@H]2CCC3=Cc4c(cnn4-c4ccc(F)cc4)C[C@]3(C(=O)c3cc(C(F)(F)F)ccn3)C2)n1` [Example 365, ((4aS,6S)-1-(4-fluorophenyl)-6-((1-methyl-1H-1,2,4-triazol-3-yl)sulfonyl)-1,4,5,6,7,8-hexahydro-4aH-benzo[f]indazol-4a-yl)(4-(trifluoromethyl)pyridin-2-yl)methanone] it is not above 100 nM; for `Cn1ccc(S(=O)(=O)N([C@H]2CCC3=Cc4c(cnn4-c4ccc(F)cc4)C[C@]3(C(=O)c3cc(C(F)(F)F)ccn3)C2)[C@H]2C[C@@](O)(C(F)(F)F)C2)n1` [Example 369, N-((4aS,6S)-1-(4-fluorophenyl)-4a-(4-(trifluoromethyl)picolinoyl)-4,4a,5,6,7,8-hexahydro-1H-benzo[f]indazol-6-yl)-N-((1r,3S)-3-hydroxy-3-(trifluoromethyl)cyclobutyl)-1-methyl-1H-pyrazole-3-sulfonamide] it is not above 100 nM. The figure for `O=C(c1cc(Cl)ccn1)[C@]12Cc3cnn(-c4ccc(F)cc4)c3C=C1CC[C@H](N(C1CC(F)(F)C1)S(=O)(=O)c1ccc(Cl)nc1)C2` [Example 370, 6-chloro-N-((4aS,6S)-4a-(4-chloropicolinoyl)-1-(4-fluorophenyl)-4,4a,5,6,7,8-hexahydro-1H-benzo[f]indazol-6-yl)-N-(3,3-difluorocyclobutyl)pyridine-3-sulfonamide] is not above 100 nM. The figure for `COCCN([C@H]1CCC2=Cc3c(cnn3-c3ccc(F)cc3)C[C@]2(C(=O)c2ncc(C(F)(F)F)s2)C1)S(=O)(=O)c1ccc(F)cc1` [Example 372, 4-fluoro-N-((4aS,6S)-1-(4-fluorophenyl)-4a-(5-(trifluoromethyl)thiazole-2-carbonyl)-4,4a,5,6,7,8-hexahydro-1H-benzo[f]indazol-6-yl)-N-(2-methoxyethyl)benzenesulfon-amide] is not above 100 nM. `Cn1cc(S(=O)(=O)CC2CCC3=Cc4c(cnn4-c4ccc(F)cc4)C[C@]3(C(=O)c3ncc(C(F)(F)F)s3)C2)cn1` (stereo partly drawn) [Example 375, ((4aR)-1-(4-fluorophenyl)-6-(((1-methyl-1H-pyrazol-4-yl)sulfonyl)methyl)-1,4,5,6,7,8-hexahydro-4aH-benzo[f]indazol-4a-yl)(5-(trifluoromethyl)thiazol-2-yl)methanone] returned an IC50 not above 100 nM. Compound `CCN([C@H]1CCC2=Cc3c(cnn3-c3ccc(F)cc3)C[C@]2(C(=O)c2ncc(C(F)(F)F)s2)C1)S(=O)(=O)c1cncn1C` [Example 376, N-ethyl-N-((4aS,6S)-1-(4-fluorophenyl)-4a-(5-(trifluoromethyl)thiazole-2-carbonyl)-4,4a,5,6,7,8-hexahydro-1H-benzo[f]indazol-6-yl)-1-methyl-1H-imidazole-5-sulfonamide] came in with an IC50 not above 100 nM.

Compound `Cn1cnc(S(=O)(=O)N(CC(F)(F)F)[C@H]2CCC3=Cc4c(cnn4-c4ccc(F)cc4)C[C@]3(C(=O)c3cc(C(F)(F)F)ccn3)C2)n1` [Example 378, N-((4aS,6S)-1-(4-fluorophenyl)-4a-(4-(trifluoromethyl)picolinoyl)-4,4a,5,6,7,8-hexahydro-1H-benzo[f]indazol-6-yl)-1-methyl-N-(2,2,2-trifluoroethyl)-1H-1,2,4-triazole-3-sulfonamide] came in with an IC50 not above 100 nM. The figure for `Cn1cnc(S(=O)(=O)CC2CCC3=Cc4c(cnn4-c4ccc(F)cc4)C[C@]3(C(=O)c3ncc(C(F)(F)F)s3)C2)n1` (stereo partly drawn) [Example 379, ((4aR)-1-(4-fluorophenyl)-6-(((1-methyl-1H-1,2,4-triazol-3-yl)sulfonyl)methyl)-1,4,5,6,7,8-hexahydro-4aH-benzo[f]indazol-4a-yl)(5-(trifluoromethyl)thiazol-2-yl)methanone] is not above 100 nM; for `Cn1ccc(S(=O)(=O)N(CCF)[C@H]2CCC3=Cc4c(cnn4-c4ccc(F)cc4)C[C@]3(C(=O)c3cc(C(F)(F)F)ccn3)C2)n1` [Example 380, N-(2-fluoroethyl)-N-((4aS,6S)-1-(4-fluorophenyl)-4a-(4-(trifluoromethyl)picolinoyl)-4,4a,5,6,7,8-hexahydro-1H-benzo[f]indazol-6-yl)-1-methyl-1H-pyrazole-3-sulfonamide] it is not above 100 nM.

In turn, `CO[C@]1(C)C[C@H](N([C@H]2CCC3=Cc4c(cnn4-c4ccc(F)cc4)C[C@]3(C(=O)c3cc(Cl)ccn3)C2)S(=O)(=O)c2ccn(C)n2)C1` [Example 381, N-((4aS,6S)-4a-(4-chloropicolinoyl)-1-(4-fluorophenyl)-4,4a,5,6,7,8-hexahydro-1H-benzo[f]indazol-6-yl)-N-((1s,3R)-3-methoxy-3-methylcyclobutyl)-1-methyl-1H-pyrazole-3-sulfonamide] yielded an IC50 not above 100 nM.

In the case of `Cn1cnc(S(=O)(=O)N(CCF)[C@H]2CCC3=Cc4c(cnn4-c4ccc(F)cc4)C[C@]3(C(=O)c3ncc(C(F)(F)F)s3)C2)n1` [Example 382, N-(2-fluoroethyl)-N-((4aS,6S)-1-(4-fluorophenyl)-4a-(5-(trifluoromethyl)thiazole-2-carbonyl)-4,4a,5,6,7,8-hexahydro-1H-benzo[f]indazol-6-yl)-1-methyl-1H-1,2,4-triazole-3-sulfonamide], the IC50 is not above 100 nM. The figure for `Cn1cnc(S(=O)(=O)N(CC(F)F)[C@H]2CCC3=Cc4c(cnn4-c4ccc(F)cc4)C[C@]3(C(=O)c3ncc(C(F)(F)F)s3)C2)c1` [Example 383, N-(2,2-difluoroethyl)-N-((4aS,6S)-1-(4-fluorophenyl)-4a-(5-(trifluoromethyl)thiazole-2-carbonyl)-4,4a,5,6,7,8-hexahydro-1H-benzo[f]indazol-6-yl)-1-methyl-1H-imidazole-4-sulfonamide] is not above 100 nM; for `CO[C@]1(C)C[C@H](N([C@H]2CCC3=Cc4c(cnn4-c4ccc(F)cc4)C[C@]3(C(=O)c3cc(C(F)(F)F)ccn3)C2)S(=O)(=O)c2ccn(C)n2)C1` [Example 384, N-((4aS,6S)-1-(4-fluorophenyl)-4a-(4-(trifluoromethyl)picolinoyl)-4,4a,5,6,7,8-hexahydro-1H-benzo[f]indazol-6-yl)-N-((1s,3R)-3-methoxy-3-methylcyclobutyl)-1-methyl-1H-pyrazole-3-sulfonamide] it is not above 100 nM; for `Cn1cnc(S(=O)(=O)N(CCF)[C@H]2CCC3=Cc4c(cnn4-c4ccc(F)cc4)C[C@]3(C(=O)c3cc(C(F)(F)F)ccn3)C2)n1` [Example 385, N-(2-fluoroethyl)-N-((4aS,6S)-1-(4-fluorophenyl)-4a-(4-(trifluoromethyl)picolinoyl)-4,4a,5,6,7,8-hexahydro-1H-benzo[f]indazol-6-yl)-1-methyl-1H-1,2,4-triazole-3-sulfonamide] it is not above 100 nM. With `O=C(c1ncc(C(F)(F)F)s1)[C@]12Cc3cnn(-c4ccc(F)cc4)c3C=C1CC[C@H](N(CCF)S(=O)(=O)c1ccc(F)cc1)C2` [Example 386, 4-fluoro-N-(2-fluoroethyl)-N-((4aS,6S)-1-(4-fluorophenyl)-4a-(5-(trifluoromethyl)thiazole-2-carbonyl)-4,4a,5,6,7,8-hexahydro-1H-benzo[f]indazol-6-yl)benzenesulfonamide], the IC50 was not above 100 nM. The figure for `O=C(c1cc(C(F)(F)F)ccn1)[C@]12Cc3cnn(-c4ccc(F)cc4)c3C=C1CC[C@H](N(CCF)S(=O)(=O)c1ccc(F)cc1)C2` [Example 387, 4-fluoro-N-(2-fluoroethyl)-N-((4aS,6S)-1-(4-fluorophenyl)-4a-(4-(trifluoromethyl)picolinoyl)-4,4a,5,6,7,8-hexahydro-1H-benzo[f]indazol-6-yl)benzenesulfonamide] is not above 100 nM.

(Values after patent US20210122730A1, “GLUCOCORTICOID RECEPTOR MODULATORS” (ORIC Pharmaceuticals, Inc., priority 2017, published 2021).)
